Experimental data reported in patent US7763615B2, “Ecteinascidin analogs for use as antitumour agents” (priority 2001, dated 2010).
Like-named read-outs stand apart in the source and are kept apart here.

Assays:
Experiment in all cases: cells
Assay type in all cases: cell-based
A549 = conditions: Homo sapiens, A549, 48 h; for GI50: read-out: GI50; for IC (TGI): read-out: TGI
How it was run: (§1)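 Readout: SRB OD490, triplicate wells. Setup: 5×10^3 cells/well, RPMI 1640 + 10% FBS, 37° C, 5% CO2; 18 h pre-attachment; 48 h sample exposure, 10 to 10^−8 μg/ml. Outputs GI, TGI (cytostatic), LC (cytotoxic).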

DU145 = conditions: Homo sapiens
How it was run: as §1

HELA-APL = conditions: for GI50 / CC50: Homo sapiens
How it was run: as §1

HELA = conditions: for CC50 / GI50: Homo sapiens
How it was run: as §1

HT29 = conditions: Homo sapiens, HT-29, 48 h
How it was run: as §1

IGROV-ET = conditions: Homo sapiens
How it was run: as §1

IGROV = conditions: Homo sapiens
How it was run: as §1

K562 = conditions: Homo sapiens
How it was run: as §1

LNCAP = conditions: Homo sapiens
How it was run: as §1

LOVO-DOX = conditions: Homo sapiens
How it was run: as §1

LOVO = conditions: Homo sapiens
How it was run: as §1

MEL-28 = conditions: Homo sapiens
How it was run: as §1

PANC-1 = conditions: Homo sapiens
How it was run: as §1

SK-BR3 = conditions: Homo sapiens
How it was run: as §1

[1] = DU-145, 48 h, DU145, 48 hours exposure, SRB
[2] = HELA-APL, 48 hours exposure, SRB
[3] = 48 h, IGROV-ET, 48 hours exposure, SRB
[4] = K562, 48 h, K562, 48 hours exposure, SRB
[5] = LNCaP, 48 h, 48 hours exposure, SRB
[6] = 48 h, LOVO-DOX, 48 hours exposure, SRB
[7] = LoVo, 48 h, 48 hours exposure, SRB
[8] = SK-MEL-28, 48 h, MEL-28, 48 hours exposure, SRB
[9] = PANC-1, 48 h, PANC-1, 48 hours exposure, SRB
[10] = SK-BR-3, 48 h, SK-BR3, 48 hours exposure, SRB

## COc1c(C)cc2c(c1O)[C@@H]1C3[C@@H]4SC[C@]5(NCCc6c5[nH]c5ccccc65)C(=O)COC[C@@H](c5c6c(c(C)c(OC(=O)C(F)(F)C(F)(F)C(F)(F)F)c54)OCO6)N3[C@@H](C#N)[C@H](C2)N1C (stereo partly drawn) [Compound 51]
A549; A549, 48 hours exposure, SRB
  GI50: 26.7 nM
  IC (TGI): 61.1 nM
A549; read-out: LC50, A549, 48 hours exposure, SRB
  CC50: 1290 nM
DU145; [1]
  GI50: 48.3 nM
  IC (TGI): 323 nM
DU145; DU-145, 48 h, read-out: LC50
  CC50: 11200 nM
HELA-APL; [2]
  TGI: 4.97E−08 Molar
HELA-APL; 48 h
  GI50: 29.1 nM
HELA-APL; 48 h, read-out: LC50
  CC50: 84.6 nM
HELA; HELA, 48 hours exposure, SRB
  TGI: 4.85E−08 Molar
  GI50: 24 nM
HELA; HeLa, 48 h, read-out: LC50
  CC50: 98 nM
HT29; HT29, 48 hours exposure, SRB
  GI50: 38.2 nM
  IC (TGI): 1310 nM
HT29; read-out: LC50, HT29, 48 hours exposure, SRB
  CC50: 11100 nM
IGROV-ET; [3]
  GI50: 263 nM
  IC (TGI): 7470 nM
IGROV-ET; 48 h, read-out: LC50
  CC50: 11200 nM
IGROV; 48 h, 48 hours exposure, SRB
  GI50: 32.3 nM
  IC (TGI): 63.3 nM
IGROV; 48 h, read-out: LC50
  CC50: 3550 nM
K562; [4]
  GI50: 16.5 nM
  IC (TGI): 46.2 nM
K562; K562, 48 h, read-out: LC50
  CC50: 114 nM
LNCAP; [5]
  GI50: 13.1 nM
  IC (TGI): 27 nM
LNCAP; LNCaP, 48 h, read-out: LC50
  CC50: 54.8 nM
LOVO-DOX; [6]
  GI50: 381 nM
  IC (TGI): 3090 nM
LOVO-DOX; 48 h, read-out: LC50
  CC50: 11200 nM
LOVO; [7]
  GI50: 21.1 nM
  IC (TGI): 38.8 nM
LOVO; LoVo, 48 h, read-out: LC50
  CC50: 71 nM
MEL-28; [8]
  GI50: 28.4 nM
  IC (TGI): 50.3 nM
MEL-28; SK-MEL-28, 48 h, read-out: LC50
  CC50: 89.3 nM
PANC-1; [9]
  GI50: 41.9 nM
  IC (TGI): 133 nM
PANC-1; PANC-1, 48 h, read-out: LC50
  CC50: 2000 nM
SK-BR3; [10]
  GI50: 39.8 nM
  IC (TGI): 99.3 nM
SK-BR3; SK-BR-3, 48 h, read-out: LC50
  CC50: 3110 nM

## COc1c(C)cc2c(c1O)[C@@H]1C3[C@@H]4SC[C@]5(NCCc6c5[nH]c5ccccc65)C(=O)COC[C@@H](c5c6c(c(C)c(OC(=O)OC(C)(C)C)c54)OCO6)N3[C@@H](C#N)[C@H](C2)N1C (stereo partly drawn) [Compound 57]
A549; A549, 48 hours exposure, SRB
  GI50: 103 nM
  IC (TGI): 607 nM
A549; A549, 48 hours exposure, SRB, read-out: LC50 (the source's name)
  CC50: 12200 nM
DU145; [1]
  GI50: 47.7 nM
  IC (TGI): 1840 nM
DU145; DU-145, DU145, 48 hours exposure, SRB, read-out: LC50 (the source's name)
  CC50: 12200 nM
HELA-APL; [2]
  TGI: 2.03E−07 Molar
HELA-APL; 48 h
  GI50: 61.4 nM
HELA-APL; HELA-APL, 48 hours exposure, SRB, read-out: LC50 (the source's name)
  CC50: 850 nM
HELA; HELA, 48 hours exposure, SRB
  TGI: 1.46E−07 Molar
  GI50: 43.7 nM
HELA; HELA, 48 hours exposure, SRB, read-out: LC50 (the source's name)
  CC50: 652 nM
HT29; HT29, 48 hours exposure, SRB
  GI50: 165 nM
  IC (TGI): 1410 nM
HT29; HT29, 48 hours exposure, SRB, read-out: LC50 (the source's name)
  CC50: 12200 nM
IGROV-ET; [3]
  GI50: 394 nM
  IC (TGI): 1150 nM
IGROV-ET; IGROV-ET, 48 hours exposure, SRB, read-out: LC50 (the source's name)
  CC50: 12200 nM
IGROV; 48 h, 48 hours exposure, SRB
  GI50: 71.8 nM
  IC (TGI): 460 nM
IGROV; 48 hours exposure, SRB, read-out: LC50 (the source's name)
  CC50: 7430 nM
K562; [4]
  GI50: 47.7 nM
  IC (TGI): 466 nM
K562; K562, 48 hours exposure, SRB, read-out: LC50 (the source's name)
  CC50: 12200 nM
LNCAP; [5]
  GI50: 33.3 nM
  IC (TGI): 71.7 nM
LNCAP; LNCAP, 48 hours exposure, SRB, read-out: LC50 (the source's name)
  CC50: 23.2 nM
LOVO-DOX; [6]
  GI50: 487 nM
  IC (TGI): 6700 nM
LOVO-DOX; LOVO-DOX, 48 hours exposure, SRB, read-out: LC50 (the source's name)
  CC50: 12200 nM
LOVO; [7]
  GI50: 73 nM
  IC (TGI): 257 nM
LOVO; LOVO, 48 hours exposure, SRB, read-out: LC50 (the source's name)
  CC50: 905 nM
MEL-28; [8]
  GI50: 64.7 nM
  IC (TGI): 209 nM
MEL-28; SK-MEL-28, MEL-28, 48 hours exposure, SRB, read-out: LC50 (the source's name)
  CC50: 662 nM
PANC-1; [9]
  GI50: 113 nM
  IC (TGI): 662 nM
PANC-1; PANC-1, 48 hours exposure, SRB, read-out: LC50 (the source's name)
  CC50: 12200 nM
SK-BR3; [10]
  GI50: 67.6 nM
  IC (TGI): 313 nM
SK-BR3; SK-BR-3, SK-BR3, 48 hours exposure, SRB, read-out: LC50 (the source's name)
  CC50: 7990 nM
